Laboratory results published in PMC2891242 (Bioorganic & medicinal chemistry, 2009).
Entries after “also recorded” stand apart in the source; their conditions may differ. Marks after values point to notes of the source that are not given here.

Key:
human NR1/NR2B = human NR1/NR2B (Homo sapiens, UniProt Q05586+Q13224); assay: Two electrode voltage clamp concentration-effect curve, human NR1/NR2B; format: cell-based
α1-adrenergic receptor = assay: [3H]prazosin displacement from brain membranes; format: binding, Wistar rat; conditions: for α1-Adrenergic (% displacement at 3 μM): 3 μM test compound, 0.25 nM [3H]prazosin, duplicate; for α1-adrenergic binding: displacement of ligand at 3 μM
GluR6 = GluR6 (Rattus norvegicus, UniProt P42260); format: cell-based
Chain of GluR6 (P42260 32-908): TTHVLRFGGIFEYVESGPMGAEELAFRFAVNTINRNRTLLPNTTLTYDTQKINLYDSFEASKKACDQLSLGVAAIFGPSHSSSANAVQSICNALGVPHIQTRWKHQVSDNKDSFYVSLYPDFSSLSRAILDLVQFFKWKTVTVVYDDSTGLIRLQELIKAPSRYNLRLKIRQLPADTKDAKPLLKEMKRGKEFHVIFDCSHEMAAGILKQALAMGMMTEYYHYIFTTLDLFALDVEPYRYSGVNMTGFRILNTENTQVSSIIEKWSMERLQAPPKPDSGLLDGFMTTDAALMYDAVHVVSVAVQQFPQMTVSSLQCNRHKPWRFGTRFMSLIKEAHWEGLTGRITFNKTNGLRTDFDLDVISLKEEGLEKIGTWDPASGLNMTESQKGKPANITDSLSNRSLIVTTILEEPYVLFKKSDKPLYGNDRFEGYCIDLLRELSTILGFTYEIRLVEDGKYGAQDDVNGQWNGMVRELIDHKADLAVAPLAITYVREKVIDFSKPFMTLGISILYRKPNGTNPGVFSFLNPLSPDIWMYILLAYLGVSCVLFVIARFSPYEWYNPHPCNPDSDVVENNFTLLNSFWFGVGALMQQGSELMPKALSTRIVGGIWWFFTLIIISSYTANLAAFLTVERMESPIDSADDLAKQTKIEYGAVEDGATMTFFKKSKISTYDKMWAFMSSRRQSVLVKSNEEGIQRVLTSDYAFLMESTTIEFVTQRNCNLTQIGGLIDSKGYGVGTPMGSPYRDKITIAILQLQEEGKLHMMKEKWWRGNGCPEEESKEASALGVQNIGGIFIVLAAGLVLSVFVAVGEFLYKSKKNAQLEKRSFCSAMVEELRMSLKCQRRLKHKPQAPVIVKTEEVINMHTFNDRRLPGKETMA

GluR1 = GluR1 (Rattus norvegicus, UniProt P19490); assay: Two electrode voltage clamp, homomeric GluR1 AMPA receptors in Xenopus oocytes; format: cell-based
Chain of GluR1 (P19490 19-907): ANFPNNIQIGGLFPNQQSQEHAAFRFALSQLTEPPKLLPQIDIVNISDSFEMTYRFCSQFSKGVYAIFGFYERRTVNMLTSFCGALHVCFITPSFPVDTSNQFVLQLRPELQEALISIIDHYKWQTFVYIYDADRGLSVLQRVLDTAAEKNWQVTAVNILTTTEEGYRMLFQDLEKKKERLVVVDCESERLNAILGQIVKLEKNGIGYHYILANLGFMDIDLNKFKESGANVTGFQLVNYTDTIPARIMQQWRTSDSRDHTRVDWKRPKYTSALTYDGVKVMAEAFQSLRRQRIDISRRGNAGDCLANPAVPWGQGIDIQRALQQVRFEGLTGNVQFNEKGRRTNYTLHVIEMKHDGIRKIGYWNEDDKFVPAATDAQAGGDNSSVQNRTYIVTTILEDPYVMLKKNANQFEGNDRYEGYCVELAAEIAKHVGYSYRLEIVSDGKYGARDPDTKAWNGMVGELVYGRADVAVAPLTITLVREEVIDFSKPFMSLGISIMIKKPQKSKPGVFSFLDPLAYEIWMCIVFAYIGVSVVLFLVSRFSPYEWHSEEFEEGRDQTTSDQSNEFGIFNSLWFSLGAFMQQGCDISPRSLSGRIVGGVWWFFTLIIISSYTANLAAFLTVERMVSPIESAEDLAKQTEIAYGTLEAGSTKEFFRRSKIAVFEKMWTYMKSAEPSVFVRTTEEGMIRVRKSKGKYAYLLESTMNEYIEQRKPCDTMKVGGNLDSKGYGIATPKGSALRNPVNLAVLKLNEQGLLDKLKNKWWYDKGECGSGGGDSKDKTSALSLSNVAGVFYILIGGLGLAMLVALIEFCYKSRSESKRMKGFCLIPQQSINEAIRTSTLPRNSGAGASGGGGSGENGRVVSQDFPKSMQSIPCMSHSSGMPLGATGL

[1] = target: human ether-a-go-go potassium channel (hERG) (Homo sapiens, UniProt Q12809); assay: [3H]astemizole displacement, hERG expressed in HEK293 cells; format: binding
Chain of human ether-a-go-go potassium channel (hERG) (Q12809 whole entry): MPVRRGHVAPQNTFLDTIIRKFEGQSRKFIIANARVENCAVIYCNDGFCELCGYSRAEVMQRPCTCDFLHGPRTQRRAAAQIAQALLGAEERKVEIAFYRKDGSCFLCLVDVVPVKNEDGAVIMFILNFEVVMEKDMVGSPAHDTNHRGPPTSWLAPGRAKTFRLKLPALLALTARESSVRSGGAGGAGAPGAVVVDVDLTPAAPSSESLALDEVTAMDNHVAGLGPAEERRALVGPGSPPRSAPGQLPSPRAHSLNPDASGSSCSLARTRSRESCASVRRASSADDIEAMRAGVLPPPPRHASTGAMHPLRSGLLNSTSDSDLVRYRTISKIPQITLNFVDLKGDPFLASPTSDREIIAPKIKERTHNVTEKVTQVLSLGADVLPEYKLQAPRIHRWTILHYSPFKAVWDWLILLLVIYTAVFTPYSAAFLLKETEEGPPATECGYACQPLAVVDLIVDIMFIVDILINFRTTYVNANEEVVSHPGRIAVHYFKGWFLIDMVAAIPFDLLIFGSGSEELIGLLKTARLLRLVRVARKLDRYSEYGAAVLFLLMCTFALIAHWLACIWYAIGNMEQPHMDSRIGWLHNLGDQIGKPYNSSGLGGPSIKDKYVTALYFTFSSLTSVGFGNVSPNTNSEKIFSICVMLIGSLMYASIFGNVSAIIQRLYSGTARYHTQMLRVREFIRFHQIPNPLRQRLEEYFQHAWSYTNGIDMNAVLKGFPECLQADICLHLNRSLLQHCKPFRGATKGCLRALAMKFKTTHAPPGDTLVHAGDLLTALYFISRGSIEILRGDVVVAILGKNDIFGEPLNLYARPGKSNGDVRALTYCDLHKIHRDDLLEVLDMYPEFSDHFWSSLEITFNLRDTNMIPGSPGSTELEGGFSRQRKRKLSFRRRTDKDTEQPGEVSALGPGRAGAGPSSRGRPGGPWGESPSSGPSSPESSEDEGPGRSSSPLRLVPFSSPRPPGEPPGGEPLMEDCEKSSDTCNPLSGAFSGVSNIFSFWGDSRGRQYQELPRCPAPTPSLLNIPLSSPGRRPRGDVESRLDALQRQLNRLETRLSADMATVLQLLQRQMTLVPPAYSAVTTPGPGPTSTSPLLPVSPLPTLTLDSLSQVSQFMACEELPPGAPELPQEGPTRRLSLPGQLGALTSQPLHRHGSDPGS

MDR1 = assay: MDR1-MDCK permeability; format: in vitro ADME; conditions: dog, MDCK-MDR1, pH 7.4
[2] = test system: voltage-gated Na+ or K+ currents; format: cell-based, rat; conditions: 3 μM; cultured cortical neurons; Na+ at −10 mV, K+ at +50 mV
rat NR1/NR2B = rat NR1/NR2B (Rattus norvegicus, UniProt P35439+Q00960); assay: Two electrode voltage clamp, recombinant NR1/NR2B in Xenopus oocytes; format: cell-based; conditions: n = 5
NR1/NR2B(ΔATD) = NR1/NR2B(ΔATD) (Rattus norvegicus, UniProt Q00960); assay: Two electrode voltage clamp, amino terminal domain deletion mutant NR1/NR2B; format: cell-based; conditions: maximal glutamate and glycine

Chain of human NR1/NR2B (Q13224 27-1484, other chains not shown): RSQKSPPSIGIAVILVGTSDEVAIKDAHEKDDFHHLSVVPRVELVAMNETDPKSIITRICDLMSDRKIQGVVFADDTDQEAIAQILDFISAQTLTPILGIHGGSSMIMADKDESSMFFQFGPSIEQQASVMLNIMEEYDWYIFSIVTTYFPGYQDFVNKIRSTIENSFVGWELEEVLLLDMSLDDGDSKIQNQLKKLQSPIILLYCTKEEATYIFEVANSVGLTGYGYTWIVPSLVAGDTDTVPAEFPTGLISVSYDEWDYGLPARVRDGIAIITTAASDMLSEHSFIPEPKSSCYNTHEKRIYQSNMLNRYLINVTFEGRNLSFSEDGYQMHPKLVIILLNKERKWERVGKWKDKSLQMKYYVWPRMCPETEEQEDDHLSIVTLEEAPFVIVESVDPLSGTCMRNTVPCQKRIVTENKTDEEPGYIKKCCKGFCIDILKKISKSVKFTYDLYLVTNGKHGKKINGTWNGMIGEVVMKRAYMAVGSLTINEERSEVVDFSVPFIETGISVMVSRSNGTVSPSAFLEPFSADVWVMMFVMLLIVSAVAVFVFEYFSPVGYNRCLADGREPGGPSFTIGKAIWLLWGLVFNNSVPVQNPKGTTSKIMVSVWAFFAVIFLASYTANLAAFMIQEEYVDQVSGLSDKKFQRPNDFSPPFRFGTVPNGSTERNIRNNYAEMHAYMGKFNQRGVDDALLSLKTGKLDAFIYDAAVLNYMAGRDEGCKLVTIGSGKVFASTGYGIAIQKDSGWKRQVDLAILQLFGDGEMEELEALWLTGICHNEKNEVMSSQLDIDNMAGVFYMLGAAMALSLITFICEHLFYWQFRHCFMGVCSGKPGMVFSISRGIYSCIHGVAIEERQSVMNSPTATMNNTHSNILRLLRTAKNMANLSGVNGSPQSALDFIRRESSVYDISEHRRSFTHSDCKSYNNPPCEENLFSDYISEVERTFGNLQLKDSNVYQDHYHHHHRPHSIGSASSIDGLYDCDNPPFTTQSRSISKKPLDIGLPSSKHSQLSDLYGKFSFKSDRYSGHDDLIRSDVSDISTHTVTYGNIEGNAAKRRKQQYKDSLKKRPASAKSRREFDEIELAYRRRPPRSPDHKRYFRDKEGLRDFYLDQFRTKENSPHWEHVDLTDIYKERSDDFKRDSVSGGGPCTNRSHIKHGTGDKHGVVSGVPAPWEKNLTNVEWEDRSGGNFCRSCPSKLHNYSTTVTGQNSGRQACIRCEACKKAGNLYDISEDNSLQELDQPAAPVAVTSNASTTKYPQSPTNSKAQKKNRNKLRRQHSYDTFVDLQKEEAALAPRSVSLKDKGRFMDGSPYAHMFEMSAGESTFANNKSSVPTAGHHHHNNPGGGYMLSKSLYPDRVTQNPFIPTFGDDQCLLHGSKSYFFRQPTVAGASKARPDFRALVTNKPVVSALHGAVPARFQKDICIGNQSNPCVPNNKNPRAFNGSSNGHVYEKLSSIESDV

`CS(=O)(=O)Nc1ccc(OCCNCC(=O)Nc2ccc(Cl)c(Cl)c2)cc1` [Compound 67, N-(3,4-Dichlorophenyl)-2-(2-(4-(methylsulfonamido)-phenoxy)ethylamino) acetamide] gave an IC50 (human NR1/NR2B) of ~1 µM.

`CS(=O)(=O)Nc1ccc(CCC(=O)NNC(=S)Nc2ccc(Cl)c(Cl)c2)cc1` [Compound 14, 4-(3,4-Dichlorophenyl)-1-(3-(4-(methylsulfonamido)-phenyl)propanoyl)thiosemicarbazide] was tested, and the “α1-Adrenergic (% displacement at 3 μM)” value (α1-adrenergic receptor) was <1%.

With `CS(=O)(=O)Nc1ccc(CCCN2CCN(c3ccc(Cl)c(Cl)c3)C2=O)cc1` [Compound 70, N-(4-(3-(3-(3,4-Dichlorophenyl)-2-oxoimidazolidin-1-yl)propyl)phenyl)methanesulfonamide] the “α1-Adrenergic (% displacement at 3 μM)” value (α1-adrenergic receptor) was <1% and the “α1-adrenergic binding” value (α1-adrenergic receptor) was “negligible”.

With `CS(=O)(=O)Nc1ccc(CCC(=O)NNC(=O)Cc2ccc(Cl)c(Cl)c2)cc1` [Compound 16, N’-(2-(3,4-Dichlorophenyl)acetyl)-3-(4-(methylsulfonamido)phenyl)propanehydrazide] the remaining activity at 3 µM (GluR6; read-out: GluR6 % response) was 97 ± 1%, the remaining activity at 3 µM (GluR1; read-out: GluR1 % response) was 101 ± 0.5% and the IC50 (human NR1/NR2B) was 5.75 µM.

In the case of `CS(=O)(=O)Nc1ccc(CCC(=O)NC/C=C/c2ccc(Cl)c(Cl)c2)cc1` [Compound 50, N-(3,4-Dichlorocinnamyl)-3-(4-(methylsulfonamido)-phenyl)propanamide], the “α1-adrenergic binding” value (α1-adrenergic receptor) is reported as “without actions” and the “hERG (% displacement) at 3 μM” value ([1]; 3 μM test compound, 1.5 nM [3H]-astemizole) is reported as 47 ^* %.

`CS(=O)(=O)Nc1ccc(OCC(=O)N2CCN(c3ccc(Cl)c(Cl)c3)CC2)cc1` [Compound 57, N-(4-(2-(4-(3,4-Dichlorophenyl)piperazin-1-yl)-2-oxoethoxy)phenyl)methanesulfonamide] gave a Papp A→B at 2 h, 5 μM (MDR1) of 4.8 ×10⁻⁶ cm/s.

For `CS(=O)(=O)Nc1ccc(OCCN2CCN(c3ccc(Cl)c(Cl)c3)C2=O)cc1` [Compound 71, N-(4-(2-(3-(3,4-Dichlorophenyl)-2-oxoimidazolidin-1-yl)ethoxy)phenyl)methanesulfonamide], the “α1-adrenergic binding” value (α1-adrenergic receptor) was “negligible”.

In the case of `CS(=O)(=O)Nc1ccc(CCC(=O)NCCNc2ccc(Cl)c(Cl)c2)cc1` [Compound 49, N-(2-(3,4-Dichlorophenylamino)ethyl)-3-(4-(methylsulfonamido)phenyl)propanamide], the “α1-adrenergic binding” value (α1-adrenergic receptor) is reported as “neither amide 49 or 52 showed any α1-adrenergic binding”.

With `CS(=O)(=O)Nc1ccc(OCC(=O)NCCNc2ccc(Cl)c(Cl)c2)cc1` [Compound 52, N-(2-(3,4-Dichlorophenylamino)ethyl)-2-(4-(meth-ylsulfonamido)phenoxy)acetamide] the “α1-Adrenergic (% displacement at 3 μM)” value (α1-adrenergic receptor) was <1%, the “α1-adrenergic binding” value (α1-adrenergic receptor) was “neither amide 49 or 52 showed any α1-adrenergic binding; also recorded: minimal” and the “effect on voltage-gated Na+ or K+ currents” value [2] was “no detectable effects”. For the same compound, the “effect on recombinant kainate receptors (GluR6)” value (GluR6; 3 μM) was “no detectable effects”, the Ki [1] was ~12 µM and the “hERG binding” value [1] was “minimal”. For the same compound, the “voltage dependence of inhibition” value (rat NR1/NR2B) was “voltage-independent”, the “effect on current response of NR1/NR2B(ΔATD)” value (NR1/NR2B(ΔATD)) was “virtually no effect” and the “effect on recombinant AMPA (GluR1) receptors” value (GluR1; 3 μM) was “no detectable effects”.

`CS(=O)(=O)Nc1ccc(OCC(=O)NCCCc2ccc(Cl)c(Cl)c2)cc1` [Compound 54, N-(3-(3,4-Dichlorophenyl)propyl)-2-(4-(methylsulfonamido)phenoxy)acetamide] was tested, and the “α1-Adrenergic (% displacement at 3 μM)” value (α1-adrenergic receptor) was <1%, the “α1-adrenergic binding” value (α1-adrenergic receptor) was “negligible” and the “hERG binding” value [1] was “negligible”.
